According to patent publication US20240148821A1, “PHARMACEUTICAL USE OF CYCLIC PEPTIDE COMPOUND” (CHUGAI SEIYAKU KABUSHIKI KAISHA, priority 2021, published 2024):
Bridge positions count the residues as written; N and C are the ends. Square brackets hold non-standard residues; d marks the D form. Peptide text beside a SMILES is read from it. * marks the point of attachment. hPhe(3-Cl-4-CF3) = N[C@@H](CCc1ccc(C(F)(F)F)c(Cl)c1)C(=O)O; hPhe(3-F,4-CF3) = N[C@@H](CCc1ccc(C(F)(F)F)c(F)c1)C(=O)O; NMePhe(4-Me) = CN[C@@H](Cc1ccc(C)cc1)C(=O)O; NMeAla(cPent) = CN[C@@H](CC1CCCC1)C(=O)O; NMeNva(5,5-F2) = CN[C@@H](CCC(F)F)C(=O)O; NMeGly(cPent) = CN[C@H](C(=O)O)C1CCCC1; NMehPhe = CN[C@@H](CCc1ccccc1)C(=O)O; NMeCha = CN[C@@H](CC1CCCCC1)C(=O)O; cisHyp = O=C(O)[C@@H]1C[C@H](O)CN1; NMeI = CC[C@H](C)[C@H](NC)C(=O)O; NMeD = CN[C@@H](CC(=O)O)C(=O)O; NMeL = CN[C@@H](CC(C)C)C(=O)O; NMeV = CN[C@H](C(=O)O)C(C)C; d(β3hA) = C[C@@H](N)CC(=O)O; NMeS = CN[C@@H](CO)C(=O)O; NMeA = CN[C@@H](C)C(=O)O; Piperidide = C1CCN(*)CC1; Pyrrolidide = C1CCN(*)C1; dNMeA = CN[C@H](C)C(=O)O; Ac5c = NC1(C(=O)O)CCCC1; Aze = O=C(O)[C@@H]1CCN1; CH2CMe2OH = CC(C)(O)C*; Aib = CC(C)(N)C(=O)O; Isopentyl = CC(C)CC*; NEtG = CCNCC(=O)O; Sar = CNCC(=O)O

How the values were obtained:
[1] = test system: Human pancreatic cancer cell line AsPC-1 (G12D mutation Kras); test: AsPC-1 cell growth inhibition (AsPC-1 CGI); assay type: cell-based; settings: read-out: AsPC-1 cell growth inhibition, 50% growth inhibitory concentration (IC50 value); 96 hours, CellTiter-Glo, values classified in ranges
Procedure: Test compounds were serially dilated with dimethyl sulfoxide, and 200 nL was then dispensed to a U-bottom 96-well plate using Labcyte Echo. […] The cell suspension was dispensed to a. plate containing a test compound at 100 μL per well and incubated at 37° C. in a 5% carbon dioxide gas incubator. 96 hours later, 80 μL of CellTiter-Glo (Promega) was added to each well and fluorescence was measured.

[2] = target: protein-protein interaction between Kras and SOS1 (biotin-tagged human Kras loaded with GDP, His-tagged human SOS1) (Homo sapiens (Human), UniProt P01116, G12D); test: Protein-protein interaction inhibition between Kras and SOS1 (KrasG12D-SOS PPI) using AlphaScreen; assay type: biochemical; settings: AlphaScreen; biotin-tagged human Kras loaded with GDP, His-tagged human SOS1; read-out: KRAS G12D-SOS PPI IC50;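 note: kras produced in E. coli, Ni-coupled donor beads and streptavidin acceptor beads, excitation 680 nm with emission detected at 520–620 nm via singlet oxygen transfer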

SMILES | IC50 [1] | IC50 [2]
CC(C)C[C@H]1C(=O)N[C@@H](C(C)C)C(=O)N(C)CC(=O)N(C)CC(=O)N(C)[C@@H](CC2CCCCC2)C(=O)N(C)CC(=O)N[C@@H](CCc2ccc(C(F)(F)F)c(F)c2)C(=O)N(C)[C@@H](CC(C)C)C(=O)NC(C)(C)C(=O)N(C)[C@@H](CC(C)C)C(=O)N[C@H](C)CC(=O)N1C [Compound 1511] (cyclo([Aib][NMeL][d(β3hA)][NMeL]V[Sar][Sar][NMeCha][Sar][hPhe(3-F,4-CF3)][NMeL])) | > 500 nM | 190 nM
CC[C@H](C)[C@@H]1NC(=O)[C@H](CC(C)C)N(C)C(=O)C[C@@H](C)NC(=O)[C@H](C2CCCC2)N(C)C(=O)C2(CCCC2)NC(=O)[C@@H]2CCCN2C(=O)[C@H](CCc2ccc(C(F)(F)F)c(Cl)c2)NC(=O)[C@@H](C)N(C)C(=O)[C@H](Cc2ccc(C)cc2)N(C)C(=O)[C@@H]2CCN2C(=O)CN(C)C1=O [Compound 1517] (cyclo([Ac5c][NMeGly(cPent)][d(β3hA)][NMeL]I[Sar][Aze][NMePhe(4-Me)][dNMeA][hPhe(3-Cl-4-CF3)]P)) | > 500 nM | 49 nM
CC[C@H](C)[C@@H]1NC(=O)[C@H](CC(C)C)N(C)C(=O)C[C@@H](C)NC(=O)[C@H](CC(C)C)N(C)C(=O)C(C)(C)NC(=O)[C@H](COCC(C)(C)O)N(C)C(=O)[C@H](CCc2ccc(C(F)(F)F)c(Cl)c2)NC(=O)CN(C)C(=O)[C@H](COCCC(C)C)N(C)C(=O)CN(C)C(=O)CN(CC)C1=O [Compound 1519] (cyclo([Aib][NMeL][d(β3hA)][NMeL]I[NEtG][Sar][NMeS](Isopentyl)[Sar][hPhe(3-Cl-4-CF3)][NMeS](CH2CMe2OH))) | > 500 nM | 120 nM
CC[C@H](C)[C@@H]1NC(=O)[C@H](CC(C)C)N(C)C(=O)C[C@@H](C)NC(=O)[C@H](CC(C)C)N(C)C(=O)C2(CCCC2)NC(=O)[C@@H]2C[C@H](O)CN2C(=O)[C@H](CCc2ccc(C(F)(F)F)c(F)c2)NC(=O)CN(C)C(=O)[C@H](CC2CCCCC2)N(C)C(=O)CN(C)C(=O)CN(C)C1=O [Compound 1529] (cyclo([Ac5c][NMeL][d(β3hA)][NMeL]I[Sar][Sar][NMeCha][Sar][hPhe(3-F,4-CF3)][cisHyp])) | > 500 nM | 11 nM
CC[C@H](C)[C@@H]1NC(=O)[C@H](C)N(C)C(=O)C[C@@H](C)NC(=O)[C@H](C2CCCC2)N(C)C(=O)C2(CCCC2)NC(=O)[C@@H]2CCCN2C(=O)[C@H](CCc2ccc(C(F)(F)F)c(Cl)c2)NC(=O)[C@@H](C)N(C)C(=O)[C@H](Cc2ccc(C)cc2)N(C)C(=O)[C@@H]2CCN2C(=O)[C@H](C)N(C)C1=O [Compound 1536] (cyclo([Ac5c][NMeGly(cPent)][d(β3hA)][NMeA]I[NMeA][Aze][NMePhe(4-Me)][dNMeA][hPhe(3-Cl-4-CF3)]P)) | > 500 nM | 21 nM
CC[C@H](C)[C@@H]1NC(=O)[C@H](C)N(C)C(=O)C[C@@H](C)NC(=O)[C@H](C2CCCC2)N(C)C(=O)C2(CCCC2)NC(=O)[C@@H]2CCCN2C(=O)[C@H](CCc2ccc(C(F)(F)F)c(Cl)c2)NC(=O)[C@@H](C)N(C)C(=O)[C@H](CC2CCCCC2)N(C)C(=O)[C@@H]2CCN2C(=O)CN(C)C1=O [Compound 1539] (cyclo([Ac5c][NMeGly(cPent)][d(β3hA)][NMeA]I[Sar][Aze][NMeCha][dNMeA][hPhe(3-Cl-4-CF3)]P)) | > 500 nM | 54 nM
CC[C@H](C)[C@@H]1NC(=O)[C@H](C)N(C)C(=O)C[C@@H](C(=O)N2CCCCC2)N(C)C(=O)[C@H](C(C)C)N(C)C(=O)C2(CCCC2)NC(=O)[C@@H]2CCCN2C(=O)[C@H](CCc2ccc(C(F)(F)F)c(Cl)c2)NC(=O)CN(C)C(=O)[C@H](CC2CCCCC2)N(C)C(=O)[C@@H]2CCN2C(=O)[C@H](CCc2ccccc2)N(C)C1=O [Compound 1559] ([NMeA]I[NMehPhe][Aze][NMeCha][Sar][hPhe(3-Cl-4-CF3)]P[Ac5c][NMeV][NMeD]-Piperidide; lactam N-11) | > 500 nM | 28 nM
CC[C@H](C)[C@@H]1NC(=O)[C@H](C)N(C)C(=O)C[C@@H](C(=O)N2CCCCC2)N(C)C(=O)[C@H](C(C)C)N(C)C(=O)C2(CCCC2)NC(=O)[C@@H]2CCCN2C(=O)[C@H](CCc2ccc(C(F)(F)F)c(Cl)c2)NC(=O)CN(C)C(=O)[C@H](CC2CCCCC2)N(C)C(=O)[C@@H]2CCN2C(=O)[C@H](C)N(C)C1=O [Compound 1562] ([NMeA]I[NMeA][Aze][NMeCha][Sar][hPhe(3-Cl-4-CF3)]P[Ac5c][NMeV][NMeD]-Piperidide; lactam N-11) | > 500 nM | 4.8 nM
CC[C@H](C)[C@@H]1NC(=O)[C@H](C)N(C)C(=O)C[C@@H](C(=O)N2CCCCC2)N(C)C(=O)[C@H](C(C)C)N(C)C(=O)C2(CCCC2)NC(=O)[C@@H]2CCCN2C(=O)[C@H](CCc2ccc(C(F)(F)F)c(Cl)c2)NC(=O)CN(C)C(=O)[C@H](CC2CCCCC2)N(C)C(=O)[C@@H]2CCN2C(=O)[C@H](CC2CCCC2)N(C)C1=O [Compound 1566] ([NMeA]I[NMeAla(cPent)][Aze][NMeCha][Sar][hPhe(3-Cl-4-CF3)]P[Ac5c][NMeV][NMeD]-Piperidide; lactam N-11) | > 500 nM | 20 nM
CC[C@H](C)[C@@H]1NC(=O)[C@H](CC(C)C)N(C)C(=O)C[C@@H](C(=O)N2CCCCC2)N(C)C(=O)[C@H](C(C)C)N(C)C(=O)C2(CCCC2)NC(=O)[C@@H]2CCCN2C(=O)[C@H](CCc2ccc(C(F)(F)F)c(Cl)c2)NC(=O)CN(C)C(=O)[C@H](CC2CCCCC2)N(C)C(=O)[C@@H]2CCN2C(=O)[C@H](CC2CCCCC2)N(C)C1=O [Compound 1574] ([NMeL]I[NMeCha][Aze][NMeCha][Sar][hPhe(3-Cl-4-CF3)]P[Ac5c][NMeV][NMeD]-Piperidide; lactam N-11) | > 500 nM | 35 nM
CC[C@H](C)[C@@H]1NC(=O)[C@H](CC(C)C)N(C)C(=O)C[C@@H](C(=O)N2CCCC2)N(C)C(=O)[C@H]([C@@H](C)CC)N(C)C(=O)C2(CCCC2)NC(=O)[C@@H]2CCCN2C(=O)[C@H](CCc2ccc(C(F)(F)F)c(Cl)c2)NC(=O)CN(C)C(=O)[C@H](Cc2ccc(C)cc2)N(C)C(=O)[C@@H]2CCN2C(=O)[C@H](C)N(C)C1=O [Compound 1645] ([NMeL]I[NMeA][Aze][NMePhe(4-Me)][Sar][hPhe(3-Cl-4-CF3)]P[Ac5c][NMeI][NMeD]-Pyrrolidide; lactam N-11) | ≤ 20 nM | 1 nM
CC[C@H](C)[C@@H]1NC(=O)[C@H](CC(C)C)N(C)C(=O)C[C@@H](C(=O)N2CCCCC2)N(C)C(=O)[C@H](CCC(F)F)N(C)C(=O)C2(CCCC2)NC(=O)[C@@H]2CCCN2C(=O)[C@H](CCc2ccc(C(F)(F)F)c(Cl)c2)NC(=O)CN(C)C(=O)[C@H](CC2CCCCC2)N(C)C(=O)[C@@H]2CCN2C(=O)[C@H](C)N(C)C1=O [Compound 1660] ([NMeL]I[NMeA][Aze][NMeCha][Sar][hPhe(3-Cl-4-CF3)]P[Ac5c][NMeNva(5,5-F2)][NMeD]-Piperidide; lactam N-11) | > 500 nM | 16 nM
CC[C@H](C)[C@@H]1NC(=O)[C@H](CC(C)C)N(C)C(=O)C[C@@H](C)NC(=O)[C@H]([C@@H](C)CC)N(C)C(=O)C2(CCCC2)NC(=O)[C@@H]2CCCN2C(=O)[C@H](CCc2ccc(C(F)(F)F)c(Cl)c2)NC(=O)CN(C)C(=O)[C@H](Cc2ccc(C)cc2)N(C)C(=O)[C@@H]2CCN2C(=O)[C@H](C)N(C)C1=O [Compound 1661] (cyclo([Ac5c][NMeI][d(β3hA)][NMeL]I[NMeA][Aze][NMePhe(4-Me)][Sar][hPhe(3-Cl-4-CF3)]P)) | ≤ 20 nM | 2.7 nM
